The results in this text go back to paper PMC10974052, “Synthesis, Computational Study, and In Vitro α-Glucosidase Inhibitory Action of 1,3,4-Thiadiazole Derivatives of 3-Aminopyridin-2(1H)-ones” (Pharmaceuticals, 2024).

One series concerns the target α-glucosidase (Saccharomyces cerevisiae, UniProt P53341). Kind of series: In vitro α-glucosidase inhibition assay (p-NPG hydrolysis, 405 nm). It is filed as biochemical. Also noted: inhibition: dose or concentration left out as unconfirmed. The settings on record: mean ± standard error of the mean, triplicate; for inhibition: read-out: The Degree of Inhibition of α-Glucosidase Activity. The procedure: Antidiabetic activity was assessed by the degree of inhibition of α-glucosidase activity by the test substances.
The study of the degree of α-glucosidase activity inhibition by the test compounds was performed using a standard method with minor modifications.
Study of the degree of inhibition of α-glucosidase activity by test compounds [25].
The principle of the method is as follows: the α-glucosidase enzyme hydrolyzes 4-Nitrophenyl α-D-glucopyranoside to form a colorimetric product (405 nm), the concentration of which is proportional to the α-glucosidase activity. […] The resulting mixture was incubated for 15 min at +37 °C, then 200 μL of a solution of 4-Nitrophenyl α-D-glucopyranoside (p-Nitrophenyl α-D-glucopyranoside, P-NPG) (5 mM) was added, and then the mixture was incubated at +37 °C for 20 min. Then, the reaction was stopped by adding 500 μL of sodium carbonate (0.1 M). A solution of α-glucosidase (1 U/mL) was used as a blank. We used 200 μL of DMSO in triplicate as a negative control. […] At the same time, a negative control was set without addition of test compounds. All samples were studied in triplicate. Inhibitory activity was expressed as a percentage (%) according to the degree of inhibition of α-glucosidase in comparison with the negative control. It was calculated by the following formula:
Inhibitory activity (%) = (1 − As/Ac)∗100%, where As is the optical density of the test compound, and Ac is the optical density of control.
The IC50 was determined from the graph of enzyme activity changes depending on the sample concentration.
Statistical processing of the results was carried out using the “Excel 365 v2401” program. […] The α-amylase and α-glucosidase enzymes determine the extent to which glucose enters the bloodstream from the gastrointestinal tract. Inhibition of these enzymes can be useful for lowering postprandial glucose levels.

Chain of α-glucosidase (P53341 whole entry): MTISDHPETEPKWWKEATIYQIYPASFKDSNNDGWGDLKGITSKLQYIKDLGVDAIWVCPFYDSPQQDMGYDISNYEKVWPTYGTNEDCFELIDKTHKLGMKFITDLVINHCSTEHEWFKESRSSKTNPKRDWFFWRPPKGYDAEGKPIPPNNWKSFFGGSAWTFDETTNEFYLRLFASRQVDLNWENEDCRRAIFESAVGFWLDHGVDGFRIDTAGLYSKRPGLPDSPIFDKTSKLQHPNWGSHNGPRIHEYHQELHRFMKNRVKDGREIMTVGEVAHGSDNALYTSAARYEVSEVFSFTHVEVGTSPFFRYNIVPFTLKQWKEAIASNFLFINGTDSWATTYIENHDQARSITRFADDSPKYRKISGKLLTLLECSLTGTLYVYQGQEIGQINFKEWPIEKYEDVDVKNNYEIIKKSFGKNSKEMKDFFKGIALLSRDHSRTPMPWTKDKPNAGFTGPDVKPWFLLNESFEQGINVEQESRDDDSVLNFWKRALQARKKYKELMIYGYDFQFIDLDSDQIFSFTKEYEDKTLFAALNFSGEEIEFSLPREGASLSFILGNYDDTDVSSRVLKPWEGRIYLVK

By melting point is commonly meant the temperature of the solid-liquid transition. `Cc1cc(-c2ccccc2)c(NC(=O)c2nnc(/C=C/C(=O)O)s2)c(=O)[nH]1` [8b, (E)-3-(5-((6-Methyl-2-oxo-4-phenyl-1,2-dihydropyridin-3-yl)carbamoyl)-1,3,4-thiadiazol-2-yl)acrylic acid] registered a melting point of 199 to 202 °C. The compound `Cc1cc(C)c(NC(=O)c2nnc(/C=C/C(=O)O)s2)c(=O)[nH]1` [8a, (E)-3-(5-((4,6-Dimethyl-2-oxo-1,2-dihydropyridin-3-yl)carbamoyl)-1,3,4-thiadiazol-2-yl)acrylic acid] returned a melting point of 261 to 263 °C.

For the compound `C[C@H]1O[C@H](O[C@H]2[C@H](O)[C@@H](O)[C@@H](O[C@H]3[C@H](O)[C@@H](O)C(O)O[C@@H]3CO)O[C@@H]2CO)[C@H](O)[C@@H](O)[C@@H]1N[C@H]1C=C(CO)[C@@H](O)[C@H](O)[C@H]1O` (stereo partly shown) [Acarbose, reference compound], the “The Degree of Inhibition of α-Glucosidase Activity” value at α-glucosidase (tested compounds at a concentration of 15 mM (Table 1 title)) is on record as 49.5 ± 1.8%. Take `Cc1cc(-c2ccccc2)c(NC(=O)c2nnc(CCCC(=O)O)s2)c(=O)[nH]1` [7b, 4-(5-((6-Methyl-2-oxo-4-phenyl-1,2-dihydropyridin-3-yl)carbamoyl)-1,3,4-thiadiazol-2-yl)butanoic acid]: the melting point was 243 to 246 °C. Consider `Cc1cc(-c2cccs2)c(NC(=O)c2nnc(-c3ccccc3C(=O)O)s2)c(=O)[nH]1` [9′c], for which the inhibition on α-glucosidase amounted to 21 ± 2.2%.

For the compound `Cc1cc(-c2cccs2)c(NC(=O)c2nnc(CCCC(=O)O)s2)c(=O)[nH]1` [7′c], the inhibition at α-glucosidase came out at 93.9 ± 0.4%. In the case of `Cc1cc(-c2ccccc2)c(NC(=O)c2nnc(/C=C/C(=O)O)s2)c(=O)[nH]1` [8′b], at α-glucosidase, the inhibition came out at 68.2 ± 4.7%. For the compound `Cc1cc(-c2cccs2)c(NC(=O)c2nnc(CCC(=O)O)s2)c(=O)[nH]1` [5′c], at α-glucosidase, the inhibition was 38.3 ± 2.4%. Turning to `Cc1cc(-c2ccccc2)c(NC(=O)c2nnc(-c3ccccc3C(=O)O)s2)c(=O)[nH]1` [9′b], the inhibition at 15000 µM at α-glucosidase (read-out: The Degree of Inhibition of α-Glucosidase Activity, tested compounds at a concentration of 15 mM (Table 1 title)) is 95%. In turn, `Cc1cc(-c2cccs2)c(NC(=O)c2nnc(/C=C/C(=O)O)s2)c(=O)[nH]1` [8c, (E)-3-(5-((6-Methyl-2-oxo-4-(thiophen-2-yl)-1,2-dihydropyridin-3-yl)carbamoyl)-1,3,4-thiadiazol-2-yl)acrylic acid] displayed a melting point of 247 to 250 °C. Still for that read-out and setting: with `Cc1cc(-c2ccccc2)c(NC(=O)c2nnc(-c3ccccc3C(=O)O)s2)c(=O)[nH]1` [9b, 2-(5-((6-Methyl-2-oxo-4-phenyl-1,2-dihydropyridin-3-yl)carbamoyl)-1,3,4-thiadiazol-2-yl)benzoic acid] the figure was 176 to 180 °C. On the same count and under the same terms, next, `Cc1cc(-c2cccs2)c(NC(=O)c2nnc(CCCC(=O)O)s2)c(=O)[nH]1` [7c, 4-(5-((6-Methyl-2-oxo-4-(thiophen-2-yl)-1,2-dihydropyridin-3-yl)carbamoyl)-1,3,4-thiadiazol-2-yl)butanoic acid]: 197 to 200 °C. On the same count and under the same terms, next, `Cc1cc(C)c(NC(=O)c2nnc(-c3ccccc3C(=O)O)s2)c(=O)[nH]1` [9a, 2-(5-((4,6-Dimethyl-2-oxo-1,2-dihydropyridin-3-yl)carbamoyl)-1,3,4-thiadiazol-2-yl)benzoic acid]: 315 to 318 °C. In the case of `Cc1cc(C)c(NC(=O)c2nnc(-c3ccccc3C(=O)O)s2)c(=O)[nH]1` [9′a], the inhibition on α-glucosidase is 33.6 ± 6.1%. `Cc1cc(-c2cccs2)c(NC(=O)c2nnc(/C=C/C(=O)O)s2)c(=O)[nH]1` [8′c]: on α-glucosidase, the inhibition turned out to be 8 ± 3%. For the compound `Cc1cc(C)c(NC(=O)c2nnc(/C=C/C(=O)O)s2)c(=O)[nH]1` [8′a], the inhibition at α-glucosidase is 14 ± 3%. Still for that read-out and setting: with `Cc1cc(C)c(NC(=O)c2nnc(CCC(=O)O)s2)c(=O)[nH]1` [5′a] the figure was 36.3 ± 4.8%. For the compound `Cc1cc(C)c(NC(=O)c2nnc(CCCC(=O)O)s2)c(=O)[nH]1` [7a, 4-(5-((4,6-Dimethyl-2-oxo-1,2-dihydropyridin-3-yl)carbamoyl)-1,3,4-thiadiazol-2-yl)butanoic acid], the melting point lay within 248 to 250 °C. On to `Cc1cc(-c2ccccc2)c(NC(=O)c2nnc(CCCC(=O)O)s2)c(=O)[nH]1` [7′b], for which the inhibition at α-glucosidase worked out at 95 ± 0.2%. `Cc1cc(C)c(NC(=O)c2nnc(CCCC(=O)O)s2)c(=O)[nH]1` [7′a]: on α-glucosidase, the inhibition turned out to be 34.8 ± 4.2%. `Cc1cc(-c2cccs2)c(NC(=O)c2nnc(-c3ccccc3C(=O)O)s2)c(=O)[nH]1` [9c, 2-(5-((6-Methyl-2-oxo-4-(thiophen-2-yl)-1,2-dihydropyridin-3-yl)carbamoyl)-1,3,4-thiadiazol-2-yl)benzoic acid] had a melting point of 275 to 277 °C. On to `Cc1cc(-c2ccccc2)c(NC(=O)c2nnc(CCC(=O)O)s2)c(=O)[nH]1` [5′b], for which the inhibition at α-glucosidase turned out to be 72.4 ± 2.3%.
